Consider eleven compounds from patent publication US5616615A, “Enaminone esters” (priority 1995, dated 1997).

The test system of series [1] is Maximal electroshock seizures. Nature of the series: MES maximal electroshock seizure test, mice ip. It counts as in vivo. To be noted: ip. More on the design: TPE (time of peak effect), activity: unit not given here. The method, then:
Three tests were performed:
1. MES--Electroshock Seizure Test
(§1) Maximal electroshock seizures are elicited with a 60-cycle alternating current of 50 mA intensity (5-7 times that necessary to elicit minimal electroshock seizures) delivered via corneal electrodes for 0.2 seconds. A drop of 0.9% saline is instilled in the eye prior to application of the electrodes in order to […].

Series [2] concerns Subcutaneous Pentylenetetrazol seizure. Nature of the series: sc Met subcutaneous pentylenetetrazol (Metrazol) seizure test, mice. It counts as in vivo. To be noted: Mus musculus, sc.
A short description of series [3]: in vivo. To be noted: for Tox (rotorod), animals toxic/tested: 100 mg/kg; for Tox, animals exhibiting toxicity/tested: 300 mg/kg. The procedure: (§2) The first phase of the ADD Program involved performing tests on male Carworth Farms #1 mice. […] Three tests were performed:
In the second phase of the ADD program protocol, estimates of anticonvulsant activity and neurotoxicity are quantified. The median effective dose (ED50) in the MES, sc Met, and rotorod test is determined. In the case of a compound with apparent activity in only one anticonvulsant test, testing is carried out in the other up to, and in some cases beyond, doses which produce neurological deficit. Compounds which fail to produce minimal neurological deficit are tested whenever possible to doses ten times their lowest anticonvulsant ED50. […] The rotorod ED50 is determined at the time of the peak neurologic deficit.
(Falling from the rotarod earlier than controls is read as motor impairment.)

Series [4] deals with seizures. The series is described as follows: Anticonvulsant evaluation (ASP phase I / overall). Type of series: in vivo, mice. Particulars: Mus musculus, ip, read-out: ASP Classification. The procedure:
as §2, §1
The animal is observed for 30 minutes.

Series [5] relates to Maximal electroshock seizures. Nature of the series: Phase VI oral MES test, rats. Type of series: in vivo. To be noted: Rattus norvegicus, oral, 50 mg/kg, read-out: MES, animals protected/tested (converted).
Excerpt: as §1
(§3) This oral screen is designated as phase VI.

Series [6] is described as follows: in vivo. Particulars: rat, po, 50 mg/kg.
Excerpt: as §3

Where [7] appears, read: Mus musculus, 0.5 h, 300 mg/kg, 30 min, read-out: MES, animals protected/tested.
The mark [8] stands for this setting: Mus musculus, 2 h, Phase II, 100 mg/kg, 2.00 h, read-out: MES, animals protected/tested (converted).
The mark [9] stands for this setting: Mus musculus, 3 h, Phase II, 100 mg/kg, 3.00 h, read-out: MES, animals protected/tested (converted).
The mark [10] stands for this setting: Mus musculus, 4 h, 300 mg/kg, 4 h, read-out: MES, animals protected/tested.
The mark [11] stands for this setting: 0.5 h, 300 mg/kg, 30 min, read-out: scMet, animals protected/tested (converted).
Setting [12] is: 4 h, 300 mg/kg, 4 h, read-out: scMet, animals protected/tested (converted).
Setting [13] is: Mus musculus, 0.5 h, 100 mg/kg, 30 min, read-out: MES, animals protected/tested (converted).
Where [14] appears, read: Mus musculus, 4 h, 100 mg/kg, 4 h, read-out: MES, animals protected/tested (converted).
[15] abbreviates: 0.5 h, 30 min, read-out: scMet, animals protected/tested (converted).
The mark [16] stands for this setting: 4 h, 4 h, read-out: scMet, animals protected/tested (converted).

Each structure is given as a SMILES string. Read-outs that look alike come from different tables or passages of the source.

Consider `CCc1ccc(NC2=CC(=O)CC(C)(C)C2)cc1` [Compound 140], for which the responders at 300 mg/kg in series [1] (setting [7]) is 0%; in series [1] (setting [10]), 100%; in series [2] (setting [11]), 0%; in series [2] (setting [12]), 0%. The responders at 100 mg/kg in series [1] (setting [8]) and in series [1] (setting [9]) was 0% throughout. Moreover, the “Tox (rotorod), animals toxic/tested” value in series [3] (mouse, in vivo) was 0/2. Further, the minimal effective dose in series [4] (Phase I) is more than 100 mg/kg.
Take `COC(=O)C1C(=O)C=C(Nc2ccc([N+](=O)[O-])cc2)CC1(C)C` (stereo not drawn) [Compound 118]: the responders at 300 mg/kg in series [1] (setting [7]) was 0%; in series [1] (setting [10]), 100%; in series [2] (setting [11]), 0%; in series [2] (setting [12]), 0%. Also, the responders at 100 mg/kg in series [1] (setting [8]) and in series [1] (setting [9]) was 0% each time. The “Tox (rotorod), animals toxic/tested” value in series [3] (mouse, in vivo) is listed as 0/2. In series [4] (Phase I), the minimal effective dose was more than 100 mg/kg.
By ED50 is commonly meant the dose at which the effect has come halfway, by size or by number of responders. In series [1] (Mus musculus, Phase II, time of peak effect), `CCCC(CCC)C(=O)O` [valproate, reference compound] showed an ED50 of 665 mg/kg. The “TPE (time of peak effect), activity” value in series [1] (Phase II) is given as 1. In addition, the “TPE (time of peak effect), toxicity” value in series [3] (Phase II, ip, commercial products, onset of ataxia) is on record as 2.
Regarding `O=C1C=C(NCc2ccccc2)CCC1` [Compound 148], the responders at 100 mg/kg in series [1] (setting [13]) was 100%; in series [1] (setting [14]), 0%; in series [2] (setting [15]) it was 0%; in series [2] (setting [16]), 0%. Moreover, the responders at 300 mg/kg in series [1] (setting [7]) is 100%; in series [1] (setting [10]), 0%; in series [2] (setting [11]), 0%; in series [2] (setting [12]), 0%. For the same compound, the responders at 50 mg/kg is 50% in series [5] (0.5 h, 0.50 h); 0% in series [5] (0.25 h); 50% in series [5] (1.00 h); 50% in series [5] (2.00 h); 75% in series [5] (4.00 h). The “Tox, animals toxic/tested” value in series [6] is reported as 0/4. Also, the minimal effective dose in series [4] (Phase I) was less than 100 mg/kg.
Turning to `CC(C)(C)c1ccc(NC2=CC(=O)CCC2)cc1` [Compound 150], the responders at 100 mg/kg was 100% in series [1] (setting [13]), 0% in series [1] (setting [14]), 0% in series [2] (setting [15]) and 0% in series [2] (setting [16]). Besides, the responders at 300 mg/kg is 100% in series [1] (setting [7]), 100% in series [1] (setting [10]), 60% in series [2] (setting [11]) and 0% in series [2] (setting [12]). For the same compound, the responders at 50 mg/kg in series [5] (0.5 h, 0.50 h) was 50%; in series [5] (0.25 h), 50%; in series [5] (1.00 h), 75%; in series [5] (2.00 h) it was 25%; in series [5] (4.00 h), 50%. In addition, the “Tox, animals toxic/tested” value in series [6] is reported as 0/4. The minimal effective dose in series [4] (Phase I) is less than 100 mg/kg.
With `CCOC(=O)C1C(=O)C=C(Nc2ccc(F)cc2)CC1C` (stereo not drawn) [Compound 124], the responders at 100 mg/kg in series [1] (setting [13]) was 100%; in series [1] (setting [14]) it was 0%; in series [2] (setting [15]), 0%; in series [2] (setting [16]) it was 0%. Further, the responders at 300 mg/kg in series [1] (setting [7]) was 100%; in series [1] (setting [10]), 0%; in series [2] (0.5 h, 300 mg/kg, 30 min, second trial, read-out: scMet, animals protected/tested (converted)), 50%; in series [2] (setting [11]), 100%; in series [2] (setting [12]), 0%. In addition, the responders at 50 mg/kg in series [5] (0.5 h, 0.50 h) is 100%; in series [5] (0.25 h), 100%; in series [5] (1.00 h) it was 100%; in series [5] (2.00 h), 100%; in series [5] (4.00 h), 75%. The “Tox, animals toxic/tested” value in series [6] is 0/4. In addition, the minimal effective dose in series [4] (Phase I) is less than 100 mg/kg.
For the compound `CC1(C)CC(=O)C=C(NCCc2ccccc2)C1` [Compound 145], the responders at 100 mg/kg in series [1] (Mus musculus, 0.25 h, read-out: MES, animals protected/tested) worked out at 0%; in series [1] (Mus musculus, 1 h, read-out: MES, animals protected/tested), 0%. The responders at 300 mg/kg in series [1] (Mus musculus, 0.5 h, read-out: MES, animals protected/tested) was 100%; in series [1] (Mus musculus, 4 h, read-out: MES, animals protected/tested), 0%; in series [2] (0.5 h, read-out: scMet, animals protected/tested) it was 0%; in series [2] (4 h, read-out: scMet, animals protected/tested), 0%. Further, the “Tox, animals exhibiting toxicity/tested” value was 4/4 in series [3] (30 min) and 0/2 in series [3] (4 h). For the same compound, the “Tox (rotorod), animals toxic/tested” value in series [3] (Phase II, 0.25 h) is given as 0/2; in series [3] (Phase II, 1.00 h) it was 0/2. Further, the minimal effective dose in series [4] is more than 100 mg/kg.
Regarding `COC(=O)C1C(=O)C=C(Nc2ccc(F)cc2)CC1C` (stereo not drawn) [Compound 112], the responders at 100 mg/kg is 66.7% in series [1] (setting [13]), 0% in series [1] (setting [14]), 0% in series [2] (setting [15]) and 0% in series [2] (setting [16]). In addition, the responders at 300 mg/kg was 100% in series [1] (setting [7]), 100% in series [1] (setting [10]), 0% in series [2] (setting [11]) and 0% in series [2] (setting [12]). Also, the responders at 50 mg/kg in series [5] (0.5 h, 0.50 h) is 100%; in series [5] (0.25 h) it was 100%; in series [5] (1.00 h) it was 100%; in series [5] (2.00 h), 100%; in series [5] (4.00 h), 100%. In series [6], the “Tox, animals toxic/tested” value is 0/4. In addition, in series [4] (Phase I), the minimal effective dose was less than 100 mg/kg.
`CCOC(=O)C1C(=O)C=C(Nc2cc(OC)ccc2OC)CC1C` (stereo not drawn) [Compound 128]: the responders at 100 mg/kg was 0% in series [1] (Mus musculus, 0.25 h, Phase II, 100 mg/kg, 0.25 h, read-out: MES, animals protected/tested (converted)) and 0% in series [1] (Mus musculus, 1 h, Phase II, 100 mg/kg, 1.00 h, read-out: MES, animals protected/tested (converted)). Further, the responders at 300 mg/kg was 100% in series [1] (setting [7]), 0% in series [1] (setting [10]), 0% in series [2] (setting [11]) and 0% in series [2] (setting [12]). In addition, the “Tox (rotorod), animals toxic/tested” value in series [3] (mouse, in vivo) was 0/2. Besides, in series [4] (Phase I), the minimal effective dose was more than 100 mg/kg.
As to `O=C1C=C(Nc2ccc(Cl)cc2)CC1` [Compound 152, 3-(4'-Chlorophenyl)amino-2-cyclopentenone], the responders at 100 mg/kg in series [1] (setting [13]) was 33.3%; in series [1] (setting [14]), 0%; in series [2] (setting [15]) it was 0%; in series [2] (setting [16]), 0%. Further, the responders at 300 mg/kg is 100% in series [1] (setting [7]), 0% in series [1] (setting [10]), 0% in series [2] (setting [11]) and 0% in series [2] (setting [12]). Moreover, the responders at 50 mg/kg in series [5] (0.5 h, 0.50 h) is 25%; in series [5] (0.25 h), 0%; in series [5] (1.00 h) it was 25%; in series [5] (2.00 h) it was 75%; in series [5] (4.00 h), 50%. The “Tox, animals toxic/tested” value in series [6] is listed as 0/4. Besides, the minimal effective dose in series [4] (Phase I) was less than 100 mg/kg.
As for `COC(=O)C1C(=O)C=C(Nc2ccc(Cl)cc2)CC1(C)C` (stereo not drawn) [Compound 119], the responders at 100 mg/kg in series [1] (setting [13]) was 100%; in series [1] (setting [14]), 100%; in series [2] (setting [15]), 0%; in series [2] (setting [16]), 0%. In addition, the responders at 300 mg/kg in series [1] (setting [7]), in series [1] (setting [10]), in series [2] (setting [11]) and in series [2] (setting [12]) was 100% each time. For the same compound, the responders at 50 mg/kg is 75% in series [5] (0.5 h, 0.50 h); 100% in series [5] (0.25 h); 100% in series [5] (1.00 h); 100% in series [5] (2.00 h); 100% in series [5] (4.00 h). Further, in series [6], the “Tox, animals toxic/tested” value is reported as 0/4. For the same compound, the minimal effective dose in series [4] (Phase I) is less than 100 mg/kg.
